Counter-ions that a name gives are not always drawn.
Legend:
Adrenergic β2 = molecular target: T1, Adrenergic β2 (Homo sapiens, UniProt P07550); assay: Alternative Adrenergic β2 Mediated cAMP Production in H292 cells (AlphaScreen cAMP detection); format: cell-based; details: for EC50: cAMP, test compounds incubated 60 minutes, 300 μM rolipram, read-out: β2 pEC50 (converted); for β2 Int Act: fraction relative to the maximum activity determined for formoterol, 60 minutes incubation
T1 construct: endogenous in cells; host or cells: H292 cells
T1 sequence (P07550 whole entry): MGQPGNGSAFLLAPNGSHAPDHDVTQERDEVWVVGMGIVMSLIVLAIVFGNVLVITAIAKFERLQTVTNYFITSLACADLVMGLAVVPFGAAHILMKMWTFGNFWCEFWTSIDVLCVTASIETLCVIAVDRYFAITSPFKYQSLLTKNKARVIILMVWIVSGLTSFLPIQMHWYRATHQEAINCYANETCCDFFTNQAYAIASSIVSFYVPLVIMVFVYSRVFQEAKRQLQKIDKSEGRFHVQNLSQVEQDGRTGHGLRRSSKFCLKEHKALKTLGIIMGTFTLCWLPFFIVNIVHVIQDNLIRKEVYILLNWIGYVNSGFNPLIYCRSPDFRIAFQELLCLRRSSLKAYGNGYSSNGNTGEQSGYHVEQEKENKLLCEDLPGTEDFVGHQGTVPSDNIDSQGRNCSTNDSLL

[1] = molecular target: T2, recombinant human α1D receptor (Homo sapiens, UniProt P25100); assay: Adrenergic α1D selectivity assay, inhibition of [3H]-prazosin binding; details: HEK293 membranes, [3H]-prazosin 0.3 nM; read-out: α1 bind pIC50 (converted)
T2 construct: expressed in transfected cells; host or cells: HEK293
T2 sequence (P25100 1-572): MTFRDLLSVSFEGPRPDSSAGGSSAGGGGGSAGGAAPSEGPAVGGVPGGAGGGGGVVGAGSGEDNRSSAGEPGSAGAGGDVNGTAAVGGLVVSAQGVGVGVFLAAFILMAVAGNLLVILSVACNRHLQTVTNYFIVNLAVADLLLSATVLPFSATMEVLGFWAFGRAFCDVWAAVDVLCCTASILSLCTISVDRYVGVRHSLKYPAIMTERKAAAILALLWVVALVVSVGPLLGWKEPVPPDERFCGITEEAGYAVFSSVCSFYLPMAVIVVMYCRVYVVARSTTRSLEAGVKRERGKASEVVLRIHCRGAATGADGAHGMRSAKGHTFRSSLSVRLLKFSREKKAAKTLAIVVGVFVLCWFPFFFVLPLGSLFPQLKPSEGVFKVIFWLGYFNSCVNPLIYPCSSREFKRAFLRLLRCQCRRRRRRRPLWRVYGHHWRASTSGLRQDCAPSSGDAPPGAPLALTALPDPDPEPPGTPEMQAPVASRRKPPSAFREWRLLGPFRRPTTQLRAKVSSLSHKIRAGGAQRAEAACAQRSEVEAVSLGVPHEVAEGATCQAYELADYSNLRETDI
Experimental: Membranes were prepared from human embryonic kidney 293 (HEK293) cells expressing recombinant human α1D receptor. These were diluted in Assay Buffer (50 mM HEPES, 1 mM EDTA, 0.1% gelatin, pH 7.4) to provide a final concentration of membranes that gave a clear window between maximum and minimum specific binding.
(§1) Assays were performed in U-bottomed 96-well polypropylene plates. 10 μL [^3H]-prazosin (0.3 nM final concentration) and 10 μL of test compound (10× final concentration) were added to each test well. For each assay plate 8 replicates were obtained for [^3H]-prazosin binding in the presence of 10 μL vehicle (10% (v/v) DMSO in Assay Buffer; defining maximum binding) or 10 μL BMY7378 (10 μM final concentration; defining non-specific binding (NSB)). Membranes were then added to achieve a final volume of 100 μL. The plates were incubated for 2 hours at room temperature and then filtered onto PEI coated GF/B filter plates, pre-soaked for 1 hour in Assay Buffer, using a 96-well plate Tomtec cell harvester. Five washes with 250 μL wash buffer (50 mM HEPES, 1 mM EDTA, pH 7.4) were performed at 4° C. to remove unbound radioactivity. The plates were dried then sealed from underneath using Packard plate sealers and MicroScint-O (50 μL) was added to each well. The plates were sealed (TopSeal A) and filter-bound radioactivity was measured with a scintillation counter (TopCount, Packard BioScience) using a 3-minute counting protocol.
(§2) Total specific binding (B0) was determined by subtracting the mean NSB from the mean maximum binding. NSB values were also subtracted from values from all other wells.

[2] = molecular target: T3, recombinant human adrenergic beta 1 receptors (Homo sapiens, UniProt P08588); assay: Adrenergic β1 selectivity assay, inhibition of [125I]-Iodocyanopindolol binding; details: membranes, [125I]-Iodocyanopindolol; read-out: β1 bind pIC50 (converted)
T3 construct: purchased Euroscreen
T3 sequence (P08588 whole entry): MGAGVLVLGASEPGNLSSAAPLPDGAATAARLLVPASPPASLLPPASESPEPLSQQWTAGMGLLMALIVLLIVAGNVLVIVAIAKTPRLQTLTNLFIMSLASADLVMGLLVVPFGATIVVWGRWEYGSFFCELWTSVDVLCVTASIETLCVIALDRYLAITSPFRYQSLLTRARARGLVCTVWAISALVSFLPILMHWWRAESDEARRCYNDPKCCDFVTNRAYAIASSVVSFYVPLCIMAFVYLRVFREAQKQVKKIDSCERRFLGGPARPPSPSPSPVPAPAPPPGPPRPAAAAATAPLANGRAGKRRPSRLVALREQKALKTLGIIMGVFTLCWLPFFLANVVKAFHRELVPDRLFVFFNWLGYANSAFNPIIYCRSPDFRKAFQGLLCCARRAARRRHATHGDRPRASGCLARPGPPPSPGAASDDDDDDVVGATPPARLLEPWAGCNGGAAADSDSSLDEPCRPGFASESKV
Experimental: Membranes containing recombinant human adrenergic beta 1 receptors were obtained from Euroscreen. These were diluted in Assay Buffer (50 mM HEPES, 1 mM EDTA, 120 mM NaCl, 0.1% gelatin, pH 7.4) to provide a final concentration of membranes that gave a clear window between maximum and minimum specific binding.
as §1, with “10 μL [^3H]-prazosin (0.3 nM final concentration) and 10 μL of test compound (10× final concentration) were added to each test well. For each assay plate 8 replicates were obtained for [^3H]-prazosin binding in the presence of 10 μL vehicle (10% (v/v) DMSO in Assay Buffer; defining maximum binding) or 10 μL BMY7378 (10 μM final concentration; defining non-specific binding (NSB)).” left out, “EDTA, 120 mM NaCl,” for “EDTA,”
as §2

EC50 (Adrenergic β2) [nM]	β2 Int Act (Adrenergic β2)	IC50 [1] [nM]	IC50 [2] [nM]	Structure (SMILES)
0.158	1	1000	15.8	O=c1[nH]c2c(O)ccc([C@@H](O)CNCCCS(=O)(=O)CCOCCc3cccc4ccccc34)c2s1 [Example 2, 4-Hydroxy-7-((1R)-1-hydroxy-2-{[3-({2-[2-(1-naphthyl)ethoxy]ethyl}sulfonyl)propyl]-amino}ethyl)-1,3-benzothiazol-2(3H)-one trifluoroacetate]
0.1	0.9	200	126	Cl.O=c1[nH]c2c(O)ccc([C@@H](O)CNCCSCCOCCc3cccc4ccccc34)c2s1 [Example 4, 4-Hydroxy-7-((1R)-1-hydroxy-2-{[2-({2-[2-(1-naphthyl)ethoxy]ethyl}thio)ethyl]-amino}ethyl)-1,3-benzothiazol-2(3H)-one hydrochloride]

From US20090221653A1, “7-(2-amino-1-hydroxy-ethyl)-4-hydroxybenzothiazol-2(3H)-one-derivatives as beta2 adrenoreceptor agonists” (AstraZeneca AB, priority 2005, published 2009)
